# Reference: US5936065A, “CS-1 peptidomimetics, compositions and methods of using the same” (Cytel Corporation, priority 1995, dated 1999)
# Square brackets hold non-standard residues; d marks the D form. Peptide text beside a SMILES is read from it. * marks the point of attachment. NHOctadecyl = CCCCCCCCCCCCCCCCCCN*; Cya = N[C@@H](CS(=O)(=O)O)C(=O)O; NMeF = CN[C@@H](Cc1ccccc1)C(=O)O; Cha = N[C@@H](CC1CCCCC1)C(=O)O; Phg = N[C@H](C(=O)O)c1ccccc1; X8 = CCCCCCCCCCCCCCCCCCO*; Nle = CCCC[C@H](N)C(=O)O; Piperidide = C1CCN(*)CC1; X7 = O=C(CO*)OCc1ccccc1; NHDecyl = CCCCCCCCCCN*; PhAc = O=C(Cc1ccccc1)*; ODecyl = CCCCCCCCCCO*; X1 = CCCCCCCCCCCCCCO*; X4 = CCN(CC)C(=O)CO*; Bz = O=C(c1ccccc1)*; OBn = c1ccc(CO*)cc1; X5 = CCCCCCCCCCCCO*; Ahx = NCCCCCC(=O)O; X6 = O=C(O)CO*
# Biological target: T1, VLA-4 receptor (Homo sapiens, UniProt P05556+P13612)
# T1 construct: inflammatory cells that contain the VLA-4 receptor [Jurkat cells; host or cells: Jurkat cells (human T lymphoblastic line)
# Experiment: In vitro binding assay: inhibition of binding of 51Cr-labeled Jurkat cells to solid phase-bound CS-1 compound (SEQ ID NO:1)
# Format: cell-based
# Conditions: not given
# Experimental: Binding inhibition is measured here as a concentration of compound that inhibits one-half the binding between a standard number of Jurkat cells and a standard amount of CS-1 compound bound to the surface of a microtiter plate well. Those concentrations are conveniently expressed as IC50 values, smaller numbers indicating a lower concentration required to inhibit 50 percent binding and therefore greater potency. Further specifics of this assay are provided hereinafter.
# Jurkat cells (ATCC TIB 152), a human T lymphoblastic line, labeled with ^51 chromium were used to assay in vitro binding inhibition provided by various compounds discussed herein.
# The plates were prepared as follows: The 25-mer CS-1 compound (SEQ ID NO:1) dissolved at 0.5-1 μg/ml in a buffer of 0.1M NaHCO3 at pH 9.5 that also contained 10 μg/ml of bovine serum albumin (BSA) or a conjugate of the CS-1 compound linked to ovalbumin (CS-1-OVA) dissolved at 1-2.5 μg/ml in the same buffer was used as the substrate. Each well of the microtiter plates was coated with 50 μl of substrate or buffer alone for controls. The wells were permitted to dry out completely and were then rinsed twice with PBS at pH 7.4. Non-specific binding sites of each well were then blocked using 200 μl per well of RPMI/1 percent BSA for two hours at room temperature.
# Jurkat cells (3-5×10^6 cells) were placed into a 15 ml Falcon™ round-bottom tube with a cap. The tube was centrifuged, and the extra medium was then removed.
# Two hundred microliters of a ^51 Cr labeling solution were added to the centrifuged cells and maintained in contact with the cells for 90-120 minutes in a warm room. […] Longer contact times provide a greater amount of labeling but lower cell viability.
# The labeled cells are washed with (i) complete medium, (ii) 1 mM EDTA/PBS and then (iii) RPM1/1 percent BSA free of serum components. The cells are centrifuged after each washing. The cells are finally resuspended in serum-free RPMI/1 percent BSA at a concentration of 1×10^6 viable cells/ml, which provides a concentration that is diluted by one-half in the assay.
# Inhibitor compounds are prepared as stock solutions at 20 mg/ml in DMSO in 1.5 ml cryogenic screwcap vials, and were stored at -70° C. Using Flow™ round-bottom or V-bottom microtiter plates, the inhibitor compounds were prepared at twice the assay concentration in RPMI/1 percent BSA at 60 μl/well.
# Four initial dilutions were typically used.
# The ^51 Cr-labeled cells ([…] at 60 μl/well) were then admixed with the diluted compound solutions. The admixtures were maintained at room temperature (about 22° C.) for 30 minutes.
# One hundred microliters of each inhibitor compound/cell admixture were transferred to the substrate-coated wells. This was done in triplicate for each dilution. The resulting plates were incubated for 30 minutes at 37° C. and then washed gently three times with RPMI/1 percent BSA at 200 μl/well. Binding was observed microscopically, particularly after the second wash.
# The bound cells were then lysed by the addition of a 0.5 percent solution of sodium dodecylsulfate in water at 100 μl/well. The resulting solutions were then processed for counting and calculation of IC50 values following usual procedures.
# The data of Table 1 are normalized to the binding of SEQ ID NO:3. […] Multiple assays for the same compound were averaged.
# T1 sequence (P13612 34-1032): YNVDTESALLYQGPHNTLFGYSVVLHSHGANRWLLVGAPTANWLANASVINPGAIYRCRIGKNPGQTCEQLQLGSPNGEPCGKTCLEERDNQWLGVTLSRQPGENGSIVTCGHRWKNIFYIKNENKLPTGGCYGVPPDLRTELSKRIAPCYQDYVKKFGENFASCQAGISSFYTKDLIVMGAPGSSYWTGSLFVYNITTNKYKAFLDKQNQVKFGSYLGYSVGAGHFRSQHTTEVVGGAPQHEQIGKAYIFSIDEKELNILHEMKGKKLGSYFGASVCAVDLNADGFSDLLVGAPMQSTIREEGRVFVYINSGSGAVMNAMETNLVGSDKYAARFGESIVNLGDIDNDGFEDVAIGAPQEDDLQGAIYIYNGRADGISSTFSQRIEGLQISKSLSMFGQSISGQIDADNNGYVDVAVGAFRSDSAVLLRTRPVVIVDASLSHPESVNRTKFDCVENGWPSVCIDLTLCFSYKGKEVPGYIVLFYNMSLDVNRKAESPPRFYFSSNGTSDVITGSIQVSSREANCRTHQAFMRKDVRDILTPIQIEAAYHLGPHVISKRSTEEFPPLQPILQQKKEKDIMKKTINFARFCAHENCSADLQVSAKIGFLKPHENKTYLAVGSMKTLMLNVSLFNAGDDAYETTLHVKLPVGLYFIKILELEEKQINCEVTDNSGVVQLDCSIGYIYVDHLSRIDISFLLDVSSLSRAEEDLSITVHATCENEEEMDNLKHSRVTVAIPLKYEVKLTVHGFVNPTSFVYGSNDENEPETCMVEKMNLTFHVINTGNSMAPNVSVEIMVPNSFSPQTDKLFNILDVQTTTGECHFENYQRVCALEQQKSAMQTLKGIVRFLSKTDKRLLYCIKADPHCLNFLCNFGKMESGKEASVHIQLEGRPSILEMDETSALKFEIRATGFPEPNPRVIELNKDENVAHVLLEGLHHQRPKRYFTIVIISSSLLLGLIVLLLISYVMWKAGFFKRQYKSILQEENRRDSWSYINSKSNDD
# T1 sequence (P05556 21-798): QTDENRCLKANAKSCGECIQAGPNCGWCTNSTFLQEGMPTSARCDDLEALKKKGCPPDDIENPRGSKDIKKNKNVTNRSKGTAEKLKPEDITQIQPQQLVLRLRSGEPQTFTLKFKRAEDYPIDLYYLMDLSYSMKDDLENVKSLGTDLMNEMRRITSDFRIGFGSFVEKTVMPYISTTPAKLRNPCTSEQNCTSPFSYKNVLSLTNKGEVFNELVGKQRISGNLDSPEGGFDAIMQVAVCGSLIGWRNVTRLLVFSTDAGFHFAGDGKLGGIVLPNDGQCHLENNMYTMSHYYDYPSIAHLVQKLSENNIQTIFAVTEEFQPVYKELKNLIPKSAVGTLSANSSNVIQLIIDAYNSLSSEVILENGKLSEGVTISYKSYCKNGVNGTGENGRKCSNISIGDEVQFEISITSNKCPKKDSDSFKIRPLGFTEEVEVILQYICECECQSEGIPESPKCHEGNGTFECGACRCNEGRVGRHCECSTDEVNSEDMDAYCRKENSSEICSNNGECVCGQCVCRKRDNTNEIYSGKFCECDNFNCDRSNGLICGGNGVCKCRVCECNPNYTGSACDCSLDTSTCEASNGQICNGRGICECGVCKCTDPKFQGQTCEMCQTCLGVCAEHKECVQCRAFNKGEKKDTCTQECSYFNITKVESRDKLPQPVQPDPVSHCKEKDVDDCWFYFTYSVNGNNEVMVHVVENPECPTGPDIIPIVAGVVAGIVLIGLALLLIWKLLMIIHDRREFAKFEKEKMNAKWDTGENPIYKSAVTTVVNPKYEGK
row,Structure (SMILES),"binding inhibition, in words (compared with standard 10-mer of SEQ ID NO:3 or other compounds)"
1,"CCCCCCCCCCCCCCCCCCNC(=O)CCCCCNC(=O)[C@@H]1CCCN1C(=O)[C@H](Cc1ccccc1)NC(=O)[C@H](CC(=O)O)NC(=O)[C@H](CC(C)C)NC(=O)Cc1ccccc1 [1068.01, phenylacetyl-Leu-Asp-Phe-Pro-NH(CH2)5 C(O)NHC18 H37] (PhAc-LDFP[Ahx]-NHOctadecyl)",binding inhibition similar to that exhibited by the standard 10-mer compound of SEQ ID NO:3

# Same assay, conditions: binding inhibition potency (IC50) normalized to standard compound of SEQ ID NO:3 = 1; multiple assays averaged; about one-tenth or less assigned zero
row,Structure (SMILES),Relative Potency
1,NC(=O)[C@H]1CCCN1C(=O)[C@H](Cc1ccccc1)NC(=O)[C@H](CC(=O)O)NC(=O)[C@H](CC1CCCCC1)NC(=O)c1ccccc1 [896.31] (Bz-[Cha]DF[dP]-NH2),11
2,CC(C)C[C@H](NC(=O)c1ccccc1)C(=O)N[C@@H](CC(=O)O)C(=O)N[C@H](C(=O)N1CCC[C@H]1C(N)=O)C(C)C [896.35],16
3,CC(C)C[C@H](NC(=O)Cc1ccccc1)C(=O)N[C@@H](CS)C(=O)N[C@@H](Cc1ccccc1)C(=O)N1CCC[C@@H]1C(N)=O [896.59] (PhAc-LCF[dP]-NH2),0
4,CC(C)C[C@H](NC(=O)Cc1ccccc1)C(=O)N[C@@H](CC(=O)O)C(=O)N[C@H](C(=O)N1CCC[C@@H]1C(N)=O)c1ccccc1 [896.69] (PhAc-LD[Phg][dP]-NH2),61
5,CC(C)C[C@H](NC(=O)c1ccccc1)C(=O)N[C@@H](CC(=O)O)C(=O)N[C@H](C(=O)N1CCC[C@@H]1C(N)=O)C(C)C [926.02],9.6
6,O=C(O)C[C@H](NC1CCN(C(=O)Cc2ccccc2)CC1)C(=O)N[C@@H](Cc1ccccc1)C(=O)N1CCCC1 [992.01],0
7,CC(C)C[C@H](NC(=O)Cc1ccccc1)C(=O)N[C@@H](CC(=O)O)C(=O)N[C@@H](Cc1ccccc1)C(N)=O [997.12] (PhAc-Leu-Asp-Phe-NH2),.48
8,CC(C)C[C@H](NC(=O)Cc1ccccc1)C(=O)N[C@@H](CC(=O)O)C(=O)NC1Cc2ccccc2N(CCN2CCOCC2)C1=O (stereo partly drawn) [997.18],20
9,CC(C)C[C@H](NC(=O)Cc1ccccc1)C(=O)NC(CC(=O)O)(CC(=O)O)C(=O)N[C@@H](Cc1ccccc1)C(=O)N1CCCCC1 [1026.01],0
10,CC(C)C[C@H](NC(=O)Cc1ccccc1)C(=O)NC(C(=O)O)C(=O)N[C@@H](Cc1ccccc1)C(=O)N1CCCCC1 (stereo partly drawn) [1026.02],0
11,CC(C)C[C@H](NC(=O)Cc1ccccc1)C(=O)N[C@@H](CS(=O)(=O)O)C(=O)N[C@@H](Cc1ccccc1)C(=O)N1CCCCC1 [1026.06] (PhAc-Leu-[Cya]-Phe-Piperidide),0
12,CC(C)C[C@H](NC(=O)Cc1ccccc1)C(=O)N[C@@H](CP(=O)(O)O)C(=O)N[C@@H](Cc1ccccc1)C(=O)N1CCCCC1 [1026.07],0
13,CC(C)C[C@H](NC(=O)Cc1ccccc1)C(=O)N[C@@H](CS(N)(=O)=O)C(=O)N[C@@H](Cc1ccccc1)C(=O)N1CCCCC1 [1026.08],0
14,CC(C)CN(CC(=O)Nc1ccccc1)C(=O)CN(CC(=O)O)C(=O)CN(Cc1ccccc1)C(=O)C1CCCC1 [1032.02],.63
15,CC(C)C[C@@H](CN[C@@H](CC(=O)O)C(=O)N[C@@H](Cc1ccccc1)C(=O)N1CCCCC1)NC(=O)Cc1ccccc1 [1041.01],0
16,CC(C)C[C@H](NC(=O)Cc1ccccc1)C(=O)N[C@@H](CC(=O)O)C(=O)N1C(=O)N(Cc2ccccc2)C(=O)[C@H]1Cc1ccccc1 [1047.07],.38
17,CC(C)C[C@H](NC(=O)Cc1ccccc1)C(=O)N[C@@H](CC(=O)O)C(=O)N1C(=O)N(Cc2ccccc2)C(=O)[C@@H]1Cc1ccccc1 [1047.08],.38
18,CC(C)C[C@H](NC(=O)Cc1ccccc1)C(=O)N[C@@H](CC(=O)O)C(=O)N[C@@H](Cc1ccccc1)C(=O)NCCCO [1051.05],25
19,NC(=O)[C@H]1CCCN1C(=O)[C@H](Cc1ccccc1)NC(=O)[C@H](CC(=O)O)NC(=O)CCCCC1CCSS1 (stereo partly drawn) [1056.09],1.1
20,O=C(O)CC(C(=O)N[C@@H](Cc1ccccc1)C(=O)N1CCCCC1)N1CC[C@H](NC(=O)Cc2ccccc2)C1=O (stereo partly drawn) [1057.01],.88
21,CC(C)C[C@H](NC(=O)Cc1ccccc1)C(=O)N[C@@H](CC(=O)O)C(=O)NC1CCCCN(CC(N)=O)C1=O (stereo partly drawn) [1057.06],97
22,CC(C)C[C@H](NC(=O)Cc1ccccc1)C(=O)N[C@@H](CC(=O)O)C(=O)N[C@@H](Cc1ccccc1)C(=O)N1CCSCC1 [1111.02],450
23,CC(C)C[C@H](NC(=O)Cc1ccccc1)C(=O)N[C@@H](CC(=O)O)C(=O)N[C@@H](Cc1ccccc1)C(=O)N1CCN(CCOCCO)CC1 [1111.07],510
24,CCCC[C@H](NC(=O)Cc1ccccc1)C(=O)N[C@@H](CC(=O)O)C(=O)N[C@@H](Cc1ccccc1)C(=O)N1CCC[C@@H]1C(N)=O [1160.02] (PhAc-[Nle]DF[dP]-NH2),49
25,CC(C)C[C@H](NC(=O)Cc1ccccc1)C(=O)N[C@@H](CC(=O)O)C(=O)N(C)[C@@H](Cc1ccccc1)C(=O)N1CCC[C@@H]1C(N)=O [1190.05] (PhAc-LD[NMeF][dP]-NH2),0

# Same assay, conditions: prodrug compounds, potency before enzymatic conversion to active form; relative to SEQ ID NO:3 = 1
row,Structure (SMILES),Relative Potency
1,CC(C)C[C@H](NC(=O)Cc1ccccc1)C(=O)N[C@@H](CC(=O)OCC(=O)OCc1ccccc1)C(=O)N[C@@H](Cc1ccccc1)C(=O)N1CCC[C@@H]1C(N)=O [1067.01] (PhAc-LD(X7)F[dP]-NH2),.97
2,CC(C)C[C@H](NC(=O)Cc1ccccc1)C(=O)N[C@@H](CC(=O)OCC(=O)O)C(=O)N[C@@H](Cc1ccccc1)C(=O)N1CCC[C@@H]1C(N)=O [1067.02] (PhAc-LD(X6)F[dP]-NH2),.81
3,"CCCCCCCCCCCCCCCCCCNC(=O)CCCCCNC(=O)[C@@H]1CCCN1C(=O)[C@H](Cc1ccccc1)NC(=O)[C@H](CC(=O)O)NC(=O)[C@H](CC(C)C)NC(=O)Cc1ccccc1 [1068.01, phenylacetyl-Leu-Asp-Phe-Pro-NH(CH2)5 C(O)NHC18 H37] (PhAc-LDFP[Ahx]-NHOctadecyl)",.91
4,CCCCCCCCCCNC(=O)[C@@H]1CCCN1C(=O)[C@H](Cc1ccccc1)NC(=O)[C@H](CC(=O)O)NC(=O)[C@H](CC(C)C)NC(=O)Cc1ccccc1 [1068.04] (PhAc-LDFP-NHDecyl),2.13
5,CCCCCCCCCCCCCCCCCC(=O)OC1CCN(C(=O)[C@H](Cc2ccccc2)NC(=O)[C@H](CC(=O)O)NC(=O)[C@H](CC(C)C)NC(=O)Cc2ccccc2)CC1 [1068.05],.63
6,CCCCCCCCCC(=O)OC1CCN(C(=O)[C@H](Cc2ccccc2)NC(=O)[C@H](CC(=O)O)NC(=O)[C@H](CC(C)C)NC(=O)Cc2ccccc2)CC1 [1068.06],.63
7,CC(C)C[C@H](NC(=O)Cc1ccccc1)C(=O)N[C@@H](CC(=O)OCc1ccccc1)C(=O)N[C@@H](Cc1ccccc1)C(=O)N1CCC[C@@H]1C(N)=O [1068.07] (PhAc-LD(OBn)F[dP]-NH2),0
8,CCCCCCCCCCOC(=O)C[C@H](NC(=O)[C@H](CC(C)C)NC(=O)Cc1ccccc1)C(=O)N[C@@H](Cc1ccccc1)C(=O)N1CCC[C@@H]1C(N)=O [1068.09] (PhAc-LD(ODecyl)F[dP]-NH2),0
9,CCCCCCCCCCCCOC(=O)C[C@H](NC(=O)[C@H](CC(C)C)NC(=O)Cc1ccccc1)C(=O)N[C@@H](Cc1ccccc1)C(=O)N1CCC[C@@H]1C(N)=O [1068.10] (PhAc-LD(X5)F[dP]-NH2),0
10,CCCCCCCCCCCCCCOC(=O)C[C@H](NC(=O)[C@H](CC(C)C)NC(=O)Cc1ccccc1)C(=O)N[C@@H](Cc1ccccc1)C(=O)N1CCC[C@@H]1C(N)=O [1068.11] (PhAc-LD(X1)F[dP]-NH2),0
11,CCCCCCCCCCCCCCCCCCOC(=O)C[C@H](NC(=O)[C@H](CC(C)C)NC(=O)Cc1ccccc1)C(=O)N[C@@H](Cc1ccccc1)C(=O)N1CCC[C@@H]1C(N)=O [1068.12] (PhAc-LD(X8)F[dP]-NH2),0
12,CCN(CC)C(=O)COC(=O)C[C@H](NC(=O)[C@H](CC(C)C)NC(=O)Cc1ccccc1)C(=O)N[C@@H](Cc1ccccc1)C(=O)N1CCC[C@@H]1C(N)=O [1068.13] (PhAc-LD(X4)F[dP]-NH2),0
13,CCOC(=O)C[C@H](NC(=O)[C@H](CC(C)C)NC(=O)Cc1ccccc1)C(=O)N[C@@H](Cc1ccccc1)C(=O)N1CCC[C@@H]1C(N)=O [1190.01] (PhAc-LD(OEt)F[dP]-NH2),0
